Measured values from ChEMBL document CHEMBL1132652, “Design and synthesis of isoxazoline derivatives as factor Xa inhibitors. 2” (J Med Chem, 1999).

Key:
[1] = biological target: Prothrombin (Homo sapiens, UniProt P00734); assay: Binding affinity towards thrombin obtained from human purified enzymes
[2] = biological target: Coagulation factor X (Homo sapiens, UniProt P00742); assay: Binding affinity towards human purified Coagulation factor Xa (FXa)
[3] = In vivo clearance (5 mg/kg) was determined in rabbits; format: ADME, organism-based, Oryctolagus cuniculus; details: rabbit
[4] = organism: Oryctolagus cuniculus; assay: Inhibitory activity against thrombus formation in rabbit using Arterio-Venous Shunt Thrombosis Model; format: functional
[5] = biological target: Serine protease 1 (Homo sapiens, UniProt P07477); assay: Binding affinity towards trypsin obtained from human purified enzymes
[6] = The plasma half life (5 mg/kg) was measured in rabbits; format: ADME, organism-based, Oryctolagus cuniculus; details: rabbit

Chain of Coagulation factor X (P00742 41-179 limits assumed): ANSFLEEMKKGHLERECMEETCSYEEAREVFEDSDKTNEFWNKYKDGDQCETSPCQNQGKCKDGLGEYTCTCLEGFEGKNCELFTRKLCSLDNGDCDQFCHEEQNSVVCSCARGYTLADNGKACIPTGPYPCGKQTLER
Chain of Coagulation factor X (P00742 235-488 limits assumed): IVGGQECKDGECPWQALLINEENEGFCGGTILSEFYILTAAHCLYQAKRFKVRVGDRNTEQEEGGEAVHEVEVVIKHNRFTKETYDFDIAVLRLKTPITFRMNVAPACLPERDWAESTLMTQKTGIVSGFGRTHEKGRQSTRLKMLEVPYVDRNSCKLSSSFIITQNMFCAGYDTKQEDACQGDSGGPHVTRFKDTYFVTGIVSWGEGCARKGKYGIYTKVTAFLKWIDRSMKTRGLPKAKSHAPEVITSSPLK
Chain of Serine protease 1 (P07477 whole entry): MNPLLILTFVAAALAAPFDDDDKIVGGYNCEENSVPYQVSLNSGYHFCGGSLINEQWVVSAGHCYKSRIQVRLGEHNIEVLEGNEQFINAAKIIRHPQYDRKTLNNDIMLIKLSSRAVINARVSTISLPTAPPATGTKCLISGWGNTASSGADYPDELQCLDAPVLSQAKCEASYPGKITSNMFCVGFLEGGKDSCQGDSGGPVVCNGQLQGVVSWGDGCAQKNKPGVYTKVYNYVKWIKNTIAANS

Ki [1] [nM]	Ki [2] [nM]	clearance [3] [mL/min/kg]	Ki [5] [nM]	half-life [6] [min]	SMILES	ID50 [4] [µM/h/kg]
5000	0.8	21.7	25	36	CCOCC1(C(=O)Nc2ccc(-c3ccccc3S(N)(=O)=O)cn2)CC(c2cccc(C(=N)N)c2)=NO1 (stereo not given) [listing 1 of 2 here]	0.8
3000	0.32		120		N=C(N)c1cccc(C2=NOC(Cn3cnnn3)(C(=O)Nc3ncc(-c4ccccc4S(N)(=O)=O)cn3)C2)c1 (stereo not given) [listing 1 of 2 here]	
2100	3.3	8.17	86	37.8	CCOCC1(C(=O)Nc2ccc(-c3ccccc3S(N)(=O)=O)cc2)CC(c2cccc(C(=N)N)c2)=NO1 (stereo not given) [listing 1 of 2 here]	0.74
400	0.52	5	45	36	N=C(N)c1cccc(C2=NOC(Cn3cnnn3)(C(=O)Nc3ccc(-c4ccccc4S(N)(=O)=O)cc3)C2)c1 (stereo not given) [listing 1 of 2 here]	0.035
70	2.1		49		CCCNS(=O)(=O)c1ccccc1-c1ccc(NC(=O)C2(Cn3cnnn3)CC(c3cccc(C(=N)N)c3)=NO2)cc1 (stereo not given)	
3100		3.5	110	55.2	COC(=O)CC1(C(=O)Nc2ccc(-c3ccccc3S(N)(=O)=O)cc2)CC(c2cccc(C(=N)N)c2)=NO1.O=C(O)C(F)(F)F (stereo not given)	0.6
1300	8.5		80		N=C(N)c1cccc(C2=NOC(Cc3ccccc3)(C(=O)Nc3ccc(-c4ccccc4S(N)(=O)=O)cc3)C2)c1 (stereo not given)	
10000	2.4		350		CCSCC1(C(=O)Nc2ncc(-c3ccccc3S(N)(=O)=O)cn2)CC(c2cccc(C(=N)N)c2)=NO1 (stereo not given)	
> 21000	20	4.67	630	94.2	N=C(N)c1cccc(C2=NOC(CC(=O)O)(C(=O)Nc3ccc(-c4ccccc4S(N)(=O)=O)cc3)C2)c1.O=C(O)C(F)(F)F (stereo not given)	>4.8
8400	2.8		40		CCOCC1(C(=O)Nc2ccc(-c3ccccc3S(N)(=O)=O)cn2)CC(c2cccc(C(=N)N)c2)=NO1 (stereo not given) [listing 2 of 2 here]	
100	0.92		49		CNS(=O)(=O)c1ccccc1-c1ccc(NC(=O)C2(Cn3cnnn3)CC(c3cccc(C(=N)N)c3)=NO2)cc1 (stereo not given)	
300	0.15	13.3	47	48	N=C(N)c1cccc(C2=NOC(Cn3cnnn3)(C(=O)Nc3ccc(-c4ccccc4S(N)(=O)=O)cc3Cl)C2)c1.O=C(O)C(F)(F)F (stereo not given)	0.25
500	0.44		110		N=C(N)c1cccc(C2=NOC(Cn3cnnn3)(C(=O)Nc3ccc(-c4ccccc4S(N)(=O)=O)cc3F)C2)c1 (stereo not given)	
2800	2.2		54		CCSCC1(C(=O)Nc2ccc(-c3ccccc3S(N)(=O)=O)cn2)CC(c2cccc(C(=N)N)c2)=NO1 (stereo not given)	
14000	4.3		330		COC(=O)CC1(C(=O)Nc2ncc(-c3ccccc3S(N)(=O)=O)cn2)CC(c2cccc(C(=N)N)c2)=NO1 (stereo not given)	
7700	1.3		500		N=C(N)c1cccc(C2=NOC(Cn3cnnn3)(C(=O)Nc3ncc(-c4ccccc4S(N)(=O)=O)cn3)C2)c1 (stereo not given) [listing 2 of 2 here]	
4300	2.9		90		CCCOCC1(C(=O)Nc2ccc(-c3ccccc3S(N)(=O)=O)cc2)CC(c2cccc(C(=N)N)c2)=NO1 (stereo not given)	
3900	2.3		52		COC(=O)CC1(C(=O)Nc2ccc(-c3ccccc3S(N)(=O)=O)cn2)CC(c2cccc(C(=N)N)c2)=NO1 (stereo not given)	
16000	9.9		390		COCC1(C(=O)Nc2ncc(-c3ccccc3S(N)(=O)=O)cn2)CC(c2cccc(C(=N)N)c2)=NO1 (stereo not given)	
4500	4.3		120		CC(C)OCC1(C(=O)Nc2ccc(-c3ccccc3S(N)(=O)=O)cc2)CC(c2cccc(C(=N)N)c2)=NO1 (stereo not given)	

Ki [1] [nM]	Ki [2] [nM]	clearance [3] [mL/min/kg]	Ki [5] [nM]	half-life [6] [min]	SMILES	ID50 [4] [µM/h/kg]
900	1.6		91		N=C(N)c1cccc(C2=NOC(Cn3cnnn3)(C(=O)Nc3ccc(-c4ccccc4S(N)(=O)=O)cc3)C2)c1 (stereo not given) [listing 2 of 2 here]	
2400	3.4		70		COCC1(C(=O)Nc2ccc(-c3ccccc3S(N)(=O)=O)cc2)CC(c2cccc(C(=N)N)c2)=NO1 (stereo not given)	
3900	37		140		CC(C)COCC1(C(=O)Nc2ccc(-c3ccccc3S(N)(=O)=O)cc2)CC(c2cccc(C(=N)N)c2)=NO1 (stereo not given)	
> 21000	6.8		330		CCOCC1(C(=O)Nc2ncc(-c3ccccc3S(N)(=O)=O)cn2)CC(c2cccc(C(=N)N)c2)=NO1 (stereo not given)	
3100	3.5		70		CCOCC1(C(=O)Nc2ccc(-c3ccccc3S(N)(=O)=O)cc2)CC(c2cccc(C(=N)N)c2)=NO1 (stereo not given) [listing 2 of 2 here]	
13000	5.3		290		CCS(=O)(=O)CC1(C(=O)Nc2ncc(-c3ccccc3S(N)(=O)=O)cn2)CC(c2cccc(C(=N)N)c2)=NO1 (stereo not given)	
300	1		200		Cc1cc(-c2ccccc2S(N)(=O)=O)ccc1NC(=O)C1(Cn2cnnn2)CC(c2cccc(C(=N)N)c2)=NO1 (stereo not given)	
4000	13		113		CCCCOCC1(C(=O)Nc2ccc(-c3ccccc3S(N)(=O)=O)cc2)CC(c2cccc(C(=N)N)c2)=NO1 (stereo not given)	
5800	11		120		CC1(C(=O)Nc2ccc(-c3ccccc3S(N)(=O)=O)cc2)CC(c2cccc(C(=N)N)c2)=NO1 (stereo not given)	
2000	3.5		72		CCS(=O)(=O)CC1(C(=O)Nc2ccc(-c3ccccc3S(N)(=O)=O)cc2)CC(c2cccc(C(=N)N)c2)=NO1 (stereo not given)	
3400	1.7		47		N=C(N)c1cccc(C2=NOC(Cn3cncn3)(C(=O)Nc3ccc(-c4ccccc4S(N)(=O)=O)cc3)C2)c1 (stereo not given)	
6100	23		310		N=C(N)c1cccc(C2=NOC(C(=O)Nc3ccc(-c4ccccc4S(N)(=O)=O)cc3)(C(F)(F)F)C2)c1 (stereo not given)	
900	0.11	8.33	18	42	N=C(N)c1cccc(C2=NOC(Cn3cnnn3)(C(=O)Nc3ccc(-c4ccccc4S(N)(=O)=O)cn3)C2)c1 (stereo not given) [listing 1 of 2 here]	0.032
2900	1.6		91		N=C(N)c1cccc(C2=NOC(Cn3ncnn3)(C(=O)Nc3ccc(-c4ccccc4S(N)(=O)=O)cc3)C2)c1 (stereo not given)	
3900	7.2		83		N=C(N)c1cccc(C2=NOC(C(=O)Nc3ccc(-c4ccccc4S(N)(=O)=O)cc3)C2)c1 (stereo not given)	
8100	4.1		41		CC1(C(=O)Nc2ccc(-c3ccccc3S(N)(=O)=O)cn2)CC(c2cccc(C(=N)N)c2)=NO1 (stereo not given)	
7400	2.5		45		COCC1(C(=O)Nc2ccc(-c3ccccc3S(N)(=O)=O)cn2)CC(c2cccc(C(=N)N)c2)=NO1 (stereo not given)	
1100	0.17		31		N=C(N)c1cccc(C2=NOC(Cn3cnnn3)(C(=O)Nc3ccc(-c4ccccc4S(N)(=O)=O)cn3)C2)c1 (stereo not given) [listing 2 of 2 here]	
5800	1.7		72		CCS(=O)(=O)CC1(C(=O)Nc2ccc(-c3ccccc3S(N)(=O)=O)cn2)CC(c2cccc(C(=N)N)c2)=NO1 (stereo not given)	
4400	5		98		COCCC1(C(=O)Nc2ccc(-c3ccccc3S(N)(=O)=O)cc2)CC(c2cccc(C(=N)N)c2)=NO1 (stereo not given)	
